Our source for the IC50 values is ChEMBL document CHEMBL1142720, “Fluoro-olefins as peptidomimetic inhibitors of dipeptidyl peptidases” (J Med Chem, 2005).

The first experiment addresses Dipeptidyl peptidase 2 (Homo sapiens, UniProt Q9UHL4). The experiment is described as follows: Inhibitory concentration against human Dipeptidylpeptidase II.
In general, IC50 refers to the concentration that inhibits the measured activity by half. Read a high IC50 as weaker potency. `FC(CNC1CCCCC1)=C1CCCCC1` displayed a 50% inhibitory concentration (IC50) of 500 µM.
Same read-out and setting: the same measure for `N#CC1CCC/C1=C(\F)CNC12CC3CC(CC(C3)C1)C2` (centres undefined): over 100 µM; for `O=C(CNC1CCCCC1)N1CCCCC1`: 177 µM; for `O=C(CNCc1ccccc1)N1CCCCC1`: 397 µM.
Compound `N#CC1CCC/C1=C(/F)CNC12CC3CC(CC(C3)C1)C2` (centres undefined) came in with an IC50 of over 100 µM.
Still for that read-out and setting: next, `O=C(CNC1CCCCC1)N1CCCC1`: 276 µM; `O=C(CNCc1ccccc1)N1CCCC1`: 500 µM.

The next experiment deals with Dipeptidyl peptidase 4 (Homo sapiens, UniProt P27487). The experiment is described as follows: Inhibitory concentration against human Dipeptidylpeptidase IV.
Dipeptidyl peptidase 4, sequence (P27487 whole entry): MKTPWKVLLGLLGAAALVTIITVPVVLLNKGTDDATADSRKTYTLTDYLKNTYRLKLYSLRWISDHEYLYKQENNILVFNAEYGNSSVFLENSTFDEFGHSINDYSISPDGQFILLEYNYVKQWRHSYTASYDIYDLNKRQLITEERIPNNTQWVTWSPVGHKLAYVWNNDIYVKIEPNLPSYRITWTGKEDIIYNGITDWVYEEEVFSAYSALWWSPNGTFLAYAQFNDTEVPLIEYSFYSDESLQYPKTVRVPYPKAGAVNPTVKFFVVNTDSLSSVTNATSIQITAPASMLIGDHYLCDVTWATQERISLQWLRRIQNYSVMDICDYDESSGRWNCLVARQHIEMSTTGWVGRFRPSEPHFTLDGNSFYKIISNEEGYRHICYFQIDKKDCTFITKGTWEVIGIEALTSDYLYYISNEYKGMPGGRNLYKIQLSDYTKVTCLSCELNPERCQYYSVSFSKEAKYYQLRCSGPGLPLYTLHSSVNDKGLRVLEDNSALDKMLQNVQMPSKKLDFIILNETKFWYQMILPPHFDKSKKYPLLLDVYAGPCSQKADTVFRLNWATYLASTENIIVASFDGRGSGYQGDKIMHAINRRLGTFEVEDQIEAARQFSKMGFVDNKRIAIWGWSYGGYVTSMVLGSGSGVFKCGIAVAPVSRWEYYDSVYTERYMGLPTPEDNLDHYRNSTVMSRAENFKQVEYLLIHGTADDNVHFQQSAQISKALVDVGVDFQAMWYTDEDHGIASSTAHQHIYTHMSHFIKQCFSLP
`FC(CNc1ccccc1)=C1CCCCC1` gave an IC50 of over 250 µM.
For `N#CC1CCC/C1=C(/F)CNCCc1ccccc1` (centres undefined), the IC50 was over 500 µM.
`FC(CNC1CCCCC1)=C1CCCCC1` came in with an IC50 of over 500 µM.
On the same count and under the same terms, the same measure for `FC(CNC1CCN(Cc2ccccc2)CC1)=C1CCCCC1`: over 250 µM; for `FC(CNCc1ccccc1)=C1CCCCC1`: over 1000 µM.
In turn, `FC(CNC1CCN(Cc2ccccc2)CC1)=C1CCCC1` came in with an IC50 of over 250 µM.
Same read-out and setting: next, `FC(CNC1CCCCC1)=C1CCCC1`: over 1000 µM; `S=C(CNCc1ccc2c(c1)OCO2)N1CCCCC1`: over 1000 µM; `COc1ccc(CNCC(F)=C2CCCCC2)cc1`: over 250 µM.
On the same count and under the same terms, the same measure for `S=C(CNCc1ccccc1)N1CCCCC1`: over 1000 µM.
`FC(CNCc1cccc(C(F)(F)F)c1)=C1CCCCC1` had an IC50 of over 125 µM.
Same read-out and setting: next, `FC(CNCc1ccc(F)cc1)=C1CCCC1`: over 1000 µM; `FC(CNCc1ccc(F)cc1)=C1CCCCC1`: over 250 µM.
`C(CNCc1ccc2c(c1)OCO2)=C1CCCC1` registered an IC50 of over 250 µM.
On the same count and under the same terms, the same measure for `FC(CNCCc1ccccn1)=C1CCCC1`: over 1000 µM; for `FC(CNC12CC3CC(CC(C3)C1)C2)=C1CCCCC1`: over 250 µM; for `CN(C)CCCNCC(F)=C1CCCCC1`: over 1000 µM.
Same read-out and setting: the same measure for `CN1CCC(NCC(F)=C2CCCCC2)CC1`: over 125 µM; for `O=C(CNC1CCCCC1)N1CCCCC1`: over 1000 µM.
Same read-out and setting: the same measure for `FC(CNC1CCNCC1)=C1CCCCC1`: over 1000 µM; for `O=C(CNCc1ccccc1)N1CCCCC1`: over 1000 µM; for `N#CC1CCC/C1=C(/F)CNCc1ccc(F)cc1` (centres undefined): over 1000 µM.
Compound `N#CC1CCC/C1=C(\F)CNCc1ccc(F)cc1` (centres undefined) displayed an IC50 of over 500 µM.
In turn, `FC(CNCCc1ccccc1)=C1CCCC1` registered an IC50 of over 1000 µM.
In turn, `N#CC1CCC/C1=C(\F)CNCCc1ccccc1` (centres undefined) gave a concentration for half-maximal inhibition (IC50) of over 1000 µM.
On the same count and under the same terms, the same measure for `FC(CNCCc1ccccc1)=C1CCCCC1`: over 1000 µM.
The compound `FC(CNCc1ccc2c(c1)OCO2)=C1CCCCC1` registered an IC50 of over 250 µM.
The same measure, in the same setting: the same measure for `C(CNC1CCCCC1)=C1CCCC1`: over 1000 µM; for `CN(C)CCCNCC(F)=C1CCCC1`: over 1000 µM; for `O=C(CNCc1ccc2c(c1)OCO2)N1CCCCC1`: over 1000 µM.
The same measure, in the same setting: next, `O=C(CNC1CCCCC1)N1CCCC1`: 148 µM.
The compound `O=C(CNCc1ccc2c(c1)OCO2)N1CCCC1` registered an IC50 of over 1000 µM.
For `S=C(CNC1CCCCC1)N1CCCCC1`, the IC50 was over 1000 µM.
Regarding `C(CNCc1ccccc1)=C1CCCC1`, the half-maximal inhibitory concentration (IC50) was over 1000 µM.
The same measure, in the same setting: the same measure for `COc1ccc(CNCC(F)=C2CCCC2)cc1`: over 1000 µM; for `FC(CNCc1ccccc1)=C1CCCC1`: over 1000 µM; for `O=C(CNCc1ccccc1)N1CCCC1`: 1000 µM.
